Experimental data reported in ChEMBL document CHEMBL1159080, “Discovery of cyclicsulfonamide derivatives as 11 beta-hydroxysteroid dehydrogenase 1 inhibitors” (Bioorg Med Chem Lett, 2010).

Assays:
[1] = molecular target: 11-beta-hydroxysteroid dehydrogenase 1 (Homo sapiens, UniProt P28845); assay: Inhibition of 11beta-HSD1 in human microsomes by HTRF cortisol assay; design: species or system Microsome
[2] = molecular target: 11-beta-hydroxysteroid dehydrogenase 1 (Mus musculus, UniProt P50172); assay: Inhibition of 11beta-HSD1 in mouse C2C12 cells by HTRF cortisol assay; format: cell-based
[3] = molecular target: T1, 11-beta-hydroxysteroid dehydrogenase type 2 (Homo sapiens) (UniProt P80365); assay: Inhibition of human 11beta-HSD2 overexpressed in HEK293 cells at 20 uM by HTRF cortisol assay; format: cell-based
T1 sequence (whole entry): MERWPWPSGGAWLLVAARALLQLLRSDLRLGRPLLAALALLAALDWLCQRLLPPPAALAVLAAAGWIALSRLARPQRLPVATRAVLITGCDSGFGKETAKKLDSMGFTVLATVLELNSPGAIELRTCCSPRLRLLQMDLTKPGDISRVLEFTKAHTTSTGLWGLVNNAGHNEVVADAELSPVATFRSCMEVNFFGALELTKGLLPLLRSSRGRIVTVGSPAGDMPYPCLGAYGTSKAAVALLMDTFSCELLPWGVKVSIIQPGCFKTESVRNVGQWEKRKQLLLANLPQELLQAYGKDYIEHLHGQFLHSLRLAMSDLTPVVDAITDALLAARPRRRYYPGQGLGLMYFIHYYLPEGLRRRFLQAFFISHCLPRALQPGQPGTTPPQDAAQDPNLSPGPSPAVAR

[4] = Half life in human liver microsomes; format: ADME, Microsome
[5] = molecular target: Voltage-gated inwardly rectifying potassium channel KCNH2 (Homo sapiens, UniProt Q12809); assay: Inhibition of human ERG
[6] = Cmax in rat; format: ADME, organism-based; settings: in vivo
[7] = Half life in rat; format: ADME, organism-based; settings: in vivo
Rattus norvegicus = organism: Rattus norvegicus; assay: Clearance in rat; format: ADME, organism-based; settings: in vivo
[8] = Oral bioavailability in rat; format: ADME, organism-based; settings: in vivo

11-beta-hydroxysteroid dehydrogenase 1 (Homo sapiens, UniProt P28845), sequence (P28845 whole entry): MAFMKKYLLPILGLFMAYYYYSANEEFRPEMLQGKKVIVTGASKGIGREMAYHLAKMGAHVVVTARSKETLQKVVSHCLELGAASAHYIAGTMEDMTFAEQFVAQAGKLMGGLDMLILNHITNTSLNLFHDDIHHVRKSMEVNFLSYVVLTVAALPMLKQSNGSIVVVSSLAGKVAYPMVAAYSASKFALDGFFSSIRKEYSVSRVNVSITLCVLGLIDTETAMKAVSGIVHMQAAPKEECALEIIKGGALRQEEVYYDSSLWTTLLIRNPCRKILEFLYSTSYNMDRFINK
11-beta-hydroxysteroid dehydrogenase 1 (Mus musculus, UniProt P50172), sequence (P50172 whole entry): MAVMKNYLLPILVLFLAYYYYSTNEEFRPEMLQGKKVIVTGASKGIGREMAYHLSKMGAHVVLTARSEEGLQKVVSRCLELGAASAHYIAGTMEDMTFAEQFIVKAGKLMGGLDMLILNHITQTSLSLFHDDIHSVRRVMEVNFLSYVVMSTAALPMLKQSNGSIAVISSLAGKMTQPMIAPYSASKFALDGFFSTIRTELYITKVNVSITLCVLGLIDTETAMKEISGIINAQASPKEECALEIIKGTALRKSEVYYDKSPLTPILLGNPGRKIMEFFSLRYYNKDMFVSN
Voltage-gated inwardly rectifying potassium channel KCNH2, sequence (Q12809 whole entry): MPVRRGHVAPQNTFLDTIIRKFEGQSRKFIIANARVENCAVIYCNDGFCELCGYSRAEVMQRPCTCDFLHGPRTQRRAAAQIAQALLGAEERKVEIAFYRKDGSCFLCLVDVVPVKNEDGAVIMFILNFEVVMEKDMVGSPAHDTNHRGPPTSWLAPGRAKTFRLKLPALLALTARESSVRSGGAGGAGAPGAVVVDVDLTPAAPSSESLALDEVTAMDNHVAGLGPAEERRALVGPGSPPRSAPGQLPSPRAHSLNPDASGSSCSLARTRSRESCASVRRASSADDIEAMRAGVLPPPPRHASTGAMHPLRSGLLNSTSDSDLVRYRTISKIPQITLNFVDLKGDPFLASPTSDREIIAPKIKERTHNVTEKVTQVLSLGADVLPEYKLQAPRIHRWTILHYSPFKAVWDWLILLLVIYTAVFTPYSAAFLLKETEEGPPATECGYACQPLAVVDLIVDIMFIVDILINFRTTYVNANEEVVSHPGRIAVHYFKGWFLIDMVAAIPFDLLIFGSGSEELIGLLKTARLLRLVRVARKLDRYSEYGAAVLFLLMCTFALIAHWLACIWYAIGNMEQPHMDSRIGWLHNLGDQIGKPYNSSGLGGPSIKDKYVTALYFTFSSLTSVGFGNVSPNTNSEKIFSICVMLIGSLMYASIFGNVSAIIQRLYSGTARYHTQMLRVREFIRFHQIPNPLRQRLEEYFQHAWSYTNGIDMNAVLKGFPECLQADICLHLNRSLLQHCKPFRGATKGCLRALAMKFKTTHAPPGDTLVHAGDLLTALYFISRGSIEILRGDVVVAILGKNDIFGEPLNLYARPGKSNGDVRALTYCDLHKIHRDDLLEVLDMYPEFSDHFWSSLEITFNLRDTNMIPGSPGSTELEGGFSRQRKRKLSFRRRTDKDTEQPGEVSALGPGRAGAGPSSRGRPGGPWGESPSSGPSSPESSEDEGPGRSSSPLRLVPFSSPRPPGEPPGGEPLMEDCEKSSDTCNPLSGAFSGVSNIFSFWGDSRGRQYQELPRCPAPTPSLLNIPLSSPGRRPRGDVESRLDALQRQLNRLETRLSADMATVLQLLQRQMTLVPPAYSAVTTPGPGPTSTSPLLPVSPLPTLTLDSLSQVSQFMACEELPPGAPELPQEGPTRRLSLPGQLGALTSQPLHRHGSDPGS

SMILES	IC50 [1] [nM]	IC50 [2] [nM]	further results
N#Cc1ccc(C(=O)CN2C(C(=O)c3ccccc3)=C(O)c3ccccc3S2(=O)=O)cc1	40	9000	
O=C(CN1C(C(=O)c2ccccc2)=C(O)c2ccccc2S1(=O)=O)c1ccccc1		7800	inhibition [3]: 6%; half-life [4]: 1.25 h; IC50 [5]: > 100000 nM; Cmax [6]: 1100 ng/mL; half-life [7]: 5.5 h; CL (Rattus norvegicus): 6.7 mL/min/kg; bioavailability [8]: 48.7%
O=C(CN1C(C(=O)c2ccccc2)=C(O)c2ccccc2S1(=O)=O)c1ccc(-c2ccccc2)cc1	28		

The next lines start with results.

IC50 [1] [nM]	IC50 [2] [nM]	SMILES	further results
31		COC(=O)c1ccc(C(=O)CN2C(C(=O)c3ccccc3)=C(O)c3ccccc3S2(=O)=O)cc1	
30		O=C(CN1C(C(=O)c2ccccc2)=C(O)c2ccccc2S1(=O)=O)c1ccc([N+](=O)[O-])cc1	
720		O=C(O)c1ccc(C(=O)CN2C(C(=O)c3ccccc3)=C(O)c3ccccc3S2(=O)=O)cc1	
